Reference: patent US6545010B2, “Composition comprising camptothecin or a camptothecin derivative and a platin derivative for the treatment of cancer” (priority 2000, dated 2003)

Legend:
P388/CPT = assay: Chemosensitivity of camptothecin-resistant i.p. P388/CPT leukemia, increase in life span; assay type: in vivo, mice; conditions: for %ILS: P388/CPT, highest non-toxic dose
Description: (§1) Cross-resistance was measured in murine leukemia cell lines.
(§2) ILS=100×[(median day of death (MDD) of treated mice)−(MDD control mice)]÷(MDD control mice)
(§3) Table III tabulates the results from this study.

Colon Adenocarcinoma C51 = assay: CPT-11, cisplatin and combination, three-arm study in mice bearing colon adenocarcinoma C51; conditions: for LCK / HNTD Dose: C51 sc; for T/C: tumor growth delay
Description: This efficacy may be quantified, for example, by the log10 cell kill, which is determined by the following formula: […]
An agent is considered to be active if log10 cell kill is greater than or equal to 0.7. An agent is considered to be very active if the log10 cell kill is greater than 2.8.
In the first arm, four dose levels of CPT-11 were given orally on days four through seven, twice daily. […] This third arm illustrated an example of semi-simultaneous administration.
The LD10 for the single agent was obtained by plotting the toxicity of that agent and the dosage in mg/kg as a log probit graph. Subsequently, the CTI LD10 was obtained by plotting as a log probit graph the observed lethality and the corresponding CTI calculated as the sum of the fraction of the LD10 of each single agent.

[1] = Tolerance and maximum tolerated dose of oral vs i.v. irinotecan in tumor bearing mice; assay type: in vivo; conditions: all five tumor models, three mice strains
Description: (§4) The effectiveness of irinotecan combination chemotherapy methods were tested in a dose response study in a murine tumor model. Three arms were evaluated for tolerance and efficacy. Tolerance was measured by mortality, body weight loss at nadir, host recovery time, and combination toxicity index. Efficacy end points for solid tumor models were tumor growth delay (T/C), log10 cell kill (LCK, defined above), tumor regressions (i.e., complete remission (CR), or partial remission (PR)). For non-solid tumors, such as leukemia, efficacy was measured as the increase in life span (ILS).

[2] = test system: Glasgow osteosarcoma (GOS); assay: CPT-11 i.v. with oxaliplatin i.v., GOS sc; assay type: in vivo, mice
Description: as §4

P388 = assay: Chemosensitivity of P388 leukemia, increase in life span; assay type: in vivo, mice; conditions: P388, agent i.v., highest non-toxic dose
Description: as §1, §2, §3

[3] = test system: Glasgow osteosarcoma (GOS); assay: CPT-11 p.o. with oxaliplatin i.v., GOS sc; assay type: in vivo, mice; conditions: days 4-8
Description: as §4

[4] = CPT-11 p.o. 31.5 mg/kg/adm, days 4-7 twice/day
[5] = CPT-11 p.o. 50.8 mg/kg/adm, days 4-7 twice/day
[6] = Cisplatin i.v. 1.9 mg/kg/adm, days 4, 7
[7] = Cisplatin i.v. 3.1 mg/kg/adm, days 4, 7

Compound: CC[C@@]1(O)C(=O)OCc2c1cc1n(c2=O)Cc2cc3ccccc3nc2-1 [CPT, camptothecin]
- Comment (sensitivity of P388/CPT) (P388/CPT; agent s.c.): resistant

Compound: CCc1c2c(nc3ccc(OC(=O)N4CCC(N5CCCCC5)CC4)cc13)-c1cc3c(c(=O)n1C2)COC(=O)[C@]3(O)CC [CPT-11, irinotecan]
- LCK (Colon Adenocarcinoma C51; CPT-11 p.o. alone at HNTD, days 4-7, twice daily): 1.1
- HNTD Dose (Colon Adenocarcinoma C51; CPT-11 p.o. alone, days 4-7, twice daily): 406 mg/kg
- Comments (Colon Adenocarcinoma C51; [4]): Marginal Activity
- Log10 cell kill (Colon Adenocarcinoma C51; [4]): 0.7
- Time for Median tumor to reach 1000 mg (Colon Adenocarcinoma C51; [4]): 25.5 days
- T/C (Colon Adenocarcinoma C51; [4]): 6.0 days
- Time for Median tumor to reach 1000 mg (Colon Adenocarcinoma C51; [5]): 29.4 days
- T/C (Colon Adenocarcinoma C51; [5]): 9.9 days
- efficacy in tumor bearing mice, oral vs i.v. administration [1]: similar
- Comment (sensitivity of P388/CPT) (P388/CPT; agent i.v.): resistant
- HNTD Dose ([2]; CPT-11 i.v. alone, days 3, 5, 7 twice daily): 349.8 mg/kg

Compound: N.N.[Cl][Pt][Cl] [Cisplatin, cis-diaminedichloroplatinum]
- LCK (Colon Adenocarcinoma C51; cisplatin i.v. alone at HNTD, days 4, 7): 3.3
- HNTD Dose (Colon Adenocarcinoma C51; cisplatin i.v. alone, days 4, 7): 6.2 mg/kg
- Log10 cell kill (Colon Adenocarcinoma C51; [6]): 1.3
- Time for Median tumor to reach 1000 mg (Colon Adenocarcinoma C51; [6]): 30.8 days
- T/C (Colon Adenocarcinoma C51; [6]): 11.3 days
- Log10 cell kill (Colon Adenocarcinoma C51; [7]): 3.3
- Time for Median tumor to reach 1000 mg (Colon Adenocarcinoma C51; [7]): 48.1 days
- T/C (Colon Adenocarcinoma C51; [7]): 28.6 days
- %ILS (P388): 73%
- %ILS (P388/CPT; agent i.v.): 153%
- Comment (sensitivity of P388/CPT) (P388/CPT; agent i.v.): sensitive

Compound: O=C1[O][Pt]2([NH][C@@H]3CCCC[C@H]3[NH]2)[O]C1=O [Oxaliplatin, oxaliplatin]
- %ILS (P388): 0%
- %ILS (P388/CPT; agent i.v.): 86%
- Comment (sensitivity of P388/CPT) (P388/CPT; agent i.v.): sensitive
- LCK ([2]; oxaliplatin i.v. alone at HNTD, days 3, 5, 7): 2.3
- HNTD Dose ([2]; oxaliplatin i.v. alone, days 3, 5, 7): 10.2 mg/kg
- LCK ([3]; oxaliplatin i.v. alone at HNTD): 2.0
- HNTD Dose ([3]; oxaliplatin i.v. alone): 16.0 mg/kg
